Reference: ChEMBL document CHEMBL3046832, “Synthesis of some sulfonamides, disubstituted sulfonylureas or thioureas and some structurally related variants. A class of promising antitumor agents” (2007)

How the values were obtained:
Format in all cases: functional
[1] = Cytotoxicity against Homo sapiens (human) ovarian cancer cells after 48 hr by SRB assay; details: Cancer cell lines
T47D = experiment: Cytotoxicity against Homo sapiens (human) T47D cells after 48 hr by SRB assay
NCI-H522 = experiment: Cytotoxicity against Homo sapiens (human) NCI-H522 cells after 48 hr by SRB assay; details: NCI-H522, 48 h
[2] = Cytotoxicity against Homo sapiens (human) NCI-H322 cells after 48 hr by SRB assay; details: NCI-H322, 48 h
HT-29 = experiment: Cytotoxicity against Homo sapiens (human) HT-29 cells after 48 hr by SRB assay; details: HT-29, 48 h
[3] = Cytotoxicity against Homo sapiens (human) prostate cancer cells after 48 hr by SRB assay; details: Cancer cell lines
SK-MEL-2 = experiment: Cytotoxicity against Homo sapiens (human) SK-MEL-2 cells after 48 hr by SRB assay; details: SK-MEL-2, 48 h
Hs-578T = experiment: Cytotoxicity against Homo sapiens (human) Hs578T cells after 48 hr by SRB assay
NCI-H23 = experiment: Cytotoxicity against Homo sapiens (human) NCI-H23 cells after 48 hr by SRB assay; details: NCI-H23, 48 h
OVCAR-5 = experiment: Cytotoxicity against Homo sapiens (human) OVCAR5 cells after 48 hr by SRB assay; details: OVCAR-5, 48 h
HOP-62 = experiment: Cytotoxicity against Homo sapiens (human) HOP62 cells after 48 hr by SRB assay; details: HOP-62, 48 h
CAKI-1 = experiment: Cytotoxicity against Homo sapiens (human) Caki1 cells after 48 hr by SRB assay; details: CAKI-1, 48 h
[4] = Cytotoxicity against Homo sapiens (human) leukemia cells after 48 hr by SRB assay; details: Leukemia cell
UO-31 = experiment: Cytotoxicity against Homo sapiens (human) UO31 cells after 48 hr by SRB assay; details: UO-31, 48 h
U-251 = experiment: Cytotoxicity against Homo sapiens (human) U251 cells after 48 hr by SRB assay; details: U-251, 48 h
SF-268 = experiment: Cytotoxicity against Homo sapiens (human) SF268 cells assessed as cellular growth after 48 hr by Alamar blue assay; design: concentration or dose not given beside the values
NCI-H460 [5] = experiment: Cytotoxicity against Homo sapiens (human) NCI-H460 cells after 48 hr by SRB assay; details: NCI-H460, 48 h
UACC-257 = experiment: Cytotoxicity against Homo sapiens (human) UACC257 cells after 48 hr by SRB assay; details: UACC-257, 48 h
BT-549 = experiment: Cytotoxicity against Homo sapiens (human) BT549 cells after 48 hr by SRB assay; details: BT-549, 48 h
RPMI-8226 = experiment: Cytotoxicity against Homo sapiens (human) RPMI8226 cells after 48 hr by SRB assay; details: RPMI-8226, 48 h
MCF7 [6] = experiment: Cytotoxicity against Homo sapiens (human) MCF7 cells after 48 hr by SRB assay; details: MCF7, 48 h
RXF 393 = experiment: Cytotoxicity against Homo sapiens (human) RXF393 cells after 48 hr by SRB assay; details: RXF 393, 48 h
SW-620 = experiment: Cytotoxicity against Homo sapiens (human) SW620 cells after 48 hr by SRB assay; details: SW-620, 48 h
OVCAR-3 = experiment: Cytotoxicity against Homo sapiens (human) OVCAR3 cells after 48 hr by SRB assay; details: OVCAR-3, 48 h
[7] = Cytotoxicity against Homo sapiens (human) breast cancer cells after 48 hr by SRB assay; details: Cancer cell lines
IGROV-1 = experiment: Cytotoxicity against Homo sapiens (human) IGROV1 cells after 48 hr by SRB assay; details: IGROV-1, 48 h
SF-539 = experiment: Cytotoxicity against Homo sapiens (human) SF539 cells after 48 hr by SRB assay; details: SF-539, 48 h
[8] = Cytotoxicity against Homo sapiens (human) renal cancer cells after 48 hr by SRB assay; details: Cancer cell lines
[9] = Cytotoxicity against Homo sapiens (human) melanoma cells after 48 hr by SRB assay; details: Melanoma cell
OVCAR-4 = experiment: Cytotoxicity against Homo sapiens (human) OVCAR4 cells after 48 hr by SRB assay; details: OVCAR-4, 48 h
MDA-MB-231 = experiment: Cytotoxicity against Homo sapiens (human) MDA-MB-231 cells after 48 hr by SRB assay; details: MDA-MB-231, 48 h
KM12 = experiment: Cytotoxicity against Homo sapiens (human) KM12 cells after 48 hr by SRB assay; details: KM12, 48 h
HCT-15 = experiment: Cytotoxicity against Homo sapiens (human) HCT15 cells after 48 hr by SRB assay; details: HCT-15, 48 h
SNB-75 = experiment: Cytotoxicity against Homo sapiens (human) SNB75 cells after 48 hr by SRB assay; details: SNB-75, 48 h
NCI-H460 [10] = experiment: Cytotoxicity against Homo sapiens (human) NCI-H460 cells assessed as cellular growth after 48 hr by Alamar blue assay; design: concentration or dose not given beside the values
786-0 = experiment: Cytotoxicity against Homo sapiens (human) 786-0 cells after 48 hr by SRB assay; details: 786-0, 48 h
EKVX = experiment: Cytotoxicity against Homo sapiens (human) EKVX cells after 48 hr by SRB assay
[11] = Cytotoxicity against Homo sapiens (human) NCI-ADR-RES cells after 48 hr by SRB assay
SF-295 = experiment: Cytotoxicity against Homo sapiens (human) SF295 cells after 48 hr by SRB assay; details: SF-295, 48 h
[12] = Cytotoxicity against Homo sapiens (human) non-small cell lung cancer cells after 48 hr by SRB assay; details: Cancer cell lines
SN12C = experiment: Cytotoxicity against Homo sapiens (human) SN12C cells after 48 hr by SRB assay
HCC 2998 = experiment: Cytotoxicity against Homo sapiens (human) HCC2998 cells after 48 hr by SRB assay; details: HCC 2998, 48 h
UACC-62 = experiment: Cytotoxicity against Homo sapiens (human) UACC62 cells after 48 hr by SRB assay; details: UACC-62, 48 h
M14 = experiment: Cytotoxicity against Homo sapiens (human) M14 cells after 48 hr by SRB assay; details: M14, 48 h
A549 = experiment: Cytotoxicity against Homo sapiens (human) A549 cells after 48 hr by SRB assay; details: A549, 48 h
SK-OV-3 = experiment: Cytotoxicity against Homo sapiens (human) SKOV3 cells after 48 hr by SRB assay; details: SK-OV-3, 48 h
MCF7 [13] = experiment: Cytotoxicity against Homo sapiens (human) MCF7 cells assessed as cellular growth after 48 hr by Alamar blue assay; design: concentration or dose not given beside the values

O=C(c1ccccc1)n1c(-c2ccccc2)cs/c1=N\S(=O)(=O)c1ccc(N2N=C3c4ccccc4CC3C2c2cccs2)cc1 (centres undefined)
GI50 [1]: 72 µM | TGI [1]: > 100 µM | GI50 (T47D): > 100 µM | GI50 (NCI-H522): 23.7 µM | GI50 [2]: 22.3 µM | GI50 (HT-29): 73.3 µM | GI50 [3]: 43.1 µM | TGI [3]: > 100 µM | GI50 (SK-MEL-2): > 100 µM | GI50 (Hs-578T): 17 µM | GI50 (NCI-H23): 13.1 µM | GI50 (OVCAR-5): 34.3 µM | GI50 (HOP-62): 23.7 µM | GI50 (CAKI-1): 38 µM | GI50 [4]: 32.9 µM | TGI [4]: 80.3 µM | GI50 (UO-31): 98.1 µM | GI50 (U-251): 32 µM | Activity (SF-268): <=32% | GI50 (NCI-H460 [5]): > 100 µM | GI50 (UACC-257): 45.7 µM | GI50 (BT-549): 69.7 µM | GI50 (RPMI-8226): 32.3 µM | GI50 (MCF7 [6]): > 100 µM | GI50 (RXF 393): 37 µM | GI50 (SW-620): 58.8 µM | GI50 (OVCAR-3): 55.2 µM | GI50 [7]: 65.3 µM | TGI [7]: > 100 µM | GI50 (IGROV-1): > 100 µM | GI50 (SF-539): 58.6 µM | GI50 [8]: 44.8 µM | TGI [8]: 95.3 µM | GI50 [9]: 51.6 µM | TGI [9]: 98.2 µM | GI50 (OVCAR-4): > 100 µM | GI50 (MDA-MB-231): 41.3 µM | GI50 (KM12): 38.3 µM | GI50 (HCT-15): 61.4 µM | GI50 (SNB-75): > 100 µM | Activity (NCI-H460 [10]): <=32% | GI50 (786-0): 21.8 µM | GI50 (EKVX): 40.7 µM | GI50 [11]: > 100 µM | GI50 (SF-295): 37.1 µM | GI50 [12]: 43.7 µM | TGI [12]: 83.9 µM | GI50 (SN12C): 44.4 µM | GI50 (HCC 2998): 14 µM | GI50 (UACC-62): 27.3 µM | GI50 (M14): 33 µM | GI50 (A549): 39.5 µM | GI50 (SK-OV-3): > 100 µM | Activity (MCF7 [13]): <=32%
